Common to all, as to format: physicochemical
The nature of data set [1]: Polymorphic form stability of di-sulphate salt upon drying at 50° C.
A short description of data set [2]: Storage stability of free base, di-sulphate salt and its aqueous solutions (background). To be noted: for stability of aqueous solution: glass vials, no preservative.
A short description of data set [3]: Water solubility of di-sulphate salt (background).
Data set [4] in a line: Solubility assessment in unbuffered water and pH buffers. To be noted: thermodynamic from solid. As to the method:
100 μL of the appropriate buffer was added to form a slurry.

Data set [5] in a line: Dynamic vapour sorption (DVS). The method, then: Approximately 10-20 mg of sample was placed into a mesh vapour sorption balance pan and loaded into an Intrinsic dynamic vapour sorption balance by Surface Measurement Systems. The sample was subjected to a ramping profile from 40-90% relative humidity (RH) at 10% increments, maintaining the sample at each step until a stable weight had been achieved (dm/dt 0.004%, minimum step length 30 minutes, maximum step length 500 minutes) at 25° C. After completion of the sorption cycle, the sample was dried using the same procedure to 0% RH and then a second sorption cycle back to 40% RH. Two cycles were performed. The weight change during the sorption/desorption cycles were plotted, allowing for the hygroscopic nature of the sample to be determined. XRPD analysis was then carried out on any solid retained.

Data set [6] can be described thus: 7-day stability tests of the salt (XRPD, HPLC purity). As to conditions: 50° C., 80° C. and ambient light. The method, then: 7-day stability tests were carried out as follows: 15 mg of salt was weighed into x3 2 mL vials. The vials were then placed at 40° C./75% RH, 80° C. and under ambient light; after 1 week, the solids were analysed by XRPD and HPLC purity (method A).

Some results are limits rather than exact numbers.

By solubility is commonly meant the dissolved amount per volume that the medium holds.

In the case of `CC(C)CN(CCCN1CCN(CCCNc2nc3ccccc3[nH]2)CC1)CC(C)C.O=S(=O)(O)O.O=S(=O)(O)O` [Form A, N-(3-(4-(3-(diisobutylamino)propyl)piperazin-1-yl)propyl)-1H-benzo[d]imidazol-2-amine di-sulphate salt], the “crystalline form stability upon drying” value in data set [1] (di-sulphate salt) was “converts back to polymorphic Form B”.
On to `CC(C)CN(CCCN1CCN(CCCNc2nc3ccccc3[nH]2)CC1)CC(C)C.O=S(=O)(O)O.O=S(=O)(O)O` [Form B, N-(3-(4-(3-(diisobutylamino)propyl)piperazin-1-yl)propyl)-1H-benzo[d]imidazol-2-amine di-sulphate], for which the “crystalline form stability upon drying” value in data set [1] (di-sulphate) is reported as “partially loses its crystallinity”.
Take `CC(C)CN(CCCN1CCN(CCCNc2nc3ccccc3[nH]2)CC1)CC(C)C.O=S(=O)(O)O.O=S(=O)(O)O` [di-sulphate salt, N-(3-(4-(3-(diisobutylamino)propyl)piperazin-1-yl)propyl)-1H-benzo[d]imidazol-2-amine di-sulphate]: the “stability of aqueous solution” value in data set [2] (5° C.) is listed as “up to 18 months”; in data set [2] (25° C./60% RH) it was “up to 18 months”; in data set [2] (40° C./75% RH) it was “up to 6 months”. Moreover, the “stability to regular storage conditions” value in data set [2] (15-25° C.) is given as “at least 5 years”. Besides, the solubility in data set [3] is above 100 mg/mL.
Consider `CC(C)CN(CCCN1CCN(CCCNc2nc3ccccc3[nH]2)CC1)CC(C)C` [free base, N-(3-(4-(3-(diisobutylamino)propyl)piperazin-1-yl)propyl)-1H-benzo[d]imidazol-2-amine], for which, in data set [2], the long term stability result is reported as “long term stability issues due to oxidative degradation”.
Turning to `CC(C)CN(CCCN1CCN(CCCNc2nc3ccccc3[nH]2)CC1)CC(C)C.O=C(O)CCC(=O)O.O=C(O)CCC(=O)O.O=C(O)CCC(=O)O` [tris-succinate salt Form 2, N-(3-(4-(3-(diisobutylamino)propyl)piperazin-1-yl)propyl)-1H-benzo[d]imidazol-2-amine tris-succinate salt], the solubility in data set [4] (pH 1.2, simulated gastric fluid) is above 123 mg/mL; in data set [4] (pH 4.5, aqueous buffer), above 92.4 mg/mL; in data set [4] (pH 6.8, aqueous buffer), above 95.7 mg/mL. Also, the “Post-DVS XRPD crystalline form” value in data set [5] (after DVS cycle) is “remain as tris-succinate salt Form 2”. Moreover, in data set [5] (at 70% RH, 25° C.), the DVS weight uptake entry is “ca. +0.1 wt. %”. For the same compound, the “DVS water uptake in equivalents” value in data set [5] (up to 90% RH) is given as “approximately 4.3 equiv. water”. The DVS weight increase result in data set [5] (up to 90% RH, 25° C.) is recorded as “ca. +9.92 wt. %”. Further, in data set [5] (up to 90% relative humidity), the hygroscopicity entry is listed as “not hygroscopic”. Also, the 7-day stability entry in data set [6] was “stable”.

Source of the values: US20230391729A1, “SUCCINATE SALTS OF N-(3-(4-(3-(DIISOBUTYLAMINO)PROPYL)PIPERAZIN-1-YL)PROPYL)-1H-BENZO[D]IMIDAZOL-2-AMINE, PREPARATION THEREOF AND USE OF THE SAME” (ALZPROTECT, priority 2020, published 2023).
